The structures appear in SMILES notation.

The nature of this series: gradient 5% acetonitrile 3 min, to 50% in 2 min, to 85% in 15 min, held 3 min, 100 µL/min. Conditions: column: Zorbax Extend-C18 2.1 x 50 mm; eluents: water / acetonitrile, 0.1% formic acid. The procedure, abridged:
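Using water and acetonitrile that each contained 0.1% formic acid, mixtures of ~100 pure standards were separated at 100 μL/min on a Zorbax Extend-C18 column (2.1 × 50 mm, 1.8 μm). The HPLC fed a quadrupole time-of-flight mass spectrometer working in positive and negative ionization mode, with dead and dwell volumes of 40 μL and 900 μL. Data were acquired over 3 months. Retention time was read from computationally picked adduct peaks after manual inspection of each.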
`Cc1cc(NC(=O)C2Oc3ccccc3NC2=O)ccc1Br` (stereo not drawn) showed an RP-LC retention time of 865 s.
To `Cc1cc(C)cc(NC(=O)Cc2c(C(=O)O)c(C)cn2C)c1` belongs 739 s; to `COCc1noc([C@@H]2CC(F)(F)CN2C(=O)C2CCC2)n1`, 746 s.
In the case of `COc1cc(OC)cc(-c2nc(NC(=O)C3CCCN(c4cnc5ccccc5n4)C3)n[nH]2)c1` (stereo not drawn) it was 1020 s.
`COc1ccc(-c2nc3cnccn3c2Nc2cccc(C(N)=O)c2)cc1` displayed an RP-LC retention time of 612 s.
In turn, `CCN1CCN(C(=O)Cn2c3ccccc3c3cnn(C)c(=O)c32)CC1` had an RP-LC retention time of 580 s.
In the case of `CN(CCc1noc(-c2ccc(C(=O)N3CCCC3)cc2)n1)C(=O)COc1ccc(Cl)cc1` it was 808 s; in that of `Cc1ccc(CNC(=O)CN2C(=O)CSc3cccn3-c3ccccc32)cc1`, 1110 s; in that of `CCOc1ccc2ncc(C#N)c(NCc3ccc(OC)c(OC)c3)c2c1`, 663 s.
To `Cc1ccc(CNC(=O)Cn2nc3c4ccc(Cl)cc4ncn3c2=O)cc1` belongs 753 s; to `COc1ccc(NC(=O)N2CCc3c(C(=O)NC4CCN(C)CC4)cccc32)cc1`, 603 s; to `Cc1cc(C)cc(NC(=O)C2CCCN(S(=O)(=O)c3cn(C(C)C)cn3)C2)c1` (stereo not drawn), 876 s.
In the case of `CC(C)(C)n1nc2c(c1-n1cccc1)CN(C(=O)C1COc3ccccc3O1)C2` (stereo not drawn) it was 1050 s; in that of `COCCCNC(=O)NC1CCN(c2nc3cccnc3n(Cc3ccccc3)c2=O)CC1`, 843 s.
For `O=C(Cc1csc(NC(=O)c2ccccc2)n1)Nc1ccc(F)c(Cl)c1`, the RP-LC retention time was 869 s.
To `O=C1[C@H]2CN(Cc3c[nH]c4ccccc34)C[C@H]2C(=O)N1CCc1ccccc1` belongs 692 s; to `CC(C)NC(=O)Cn1nc2c3cc(-c4ccc(Cl)cc4)nn3ccn2c1=O`, 823 s.
To `COc1ccc(NC(=O)N2CCCC(CN3CCc4ccccc4C3)C2)cc1OC` (stereo not drawn) belongs 628 s.
Turning to `Cc1cccc(N(C)C(=O)c2cccc(NC(=O)[C@H]3[C@@H]4C[C@@H]5[C@H]3C(=O)O[C@@H]5C4)c2)c1`, the RP-LC retention time amounted to 782 s.
Regarding `COc1ccc(N2CC(c3noc(-c4cccc(N(C)C)c4)n3)CC2=O)cc1` (stereo not drawn), the RP-LC retention time was 983 s.
Compound `COc1ccccc1NC(=O)c1cnc2c(c1)c(=O)n(C)c(=O)n2-c1ccc(C)cc1` gave an RP-LC retention time of 944 s.
With `Cc1ccc(F)cc1S(=O)(=O)Nc1cccn2c(C3CCC3)nnc12`, the RP-LC retention time stood at 817 s.
In the case of `O=C1CC(C(=O)N2CCc3ccccc3C2)CN1CCc1c[nH]c2ccc(F)cc12` (stereo not drawn) it was 804 s; in that of `COc1ccc(S(=O)(=O)N2CCc3nn(CC(C)C)c(=O)n3CC2)cc1OC`, 745 s.
To `Cc1ccc(C)c(-n2ccn(Cc3nc(-c4ccc(F)cc4)no3)c(=O)c2=O)c1` belongs 910 s; to `CCn1c(=O)sc2cc(S(=O)(=O)N3CCC(C(=O)Nc4cccc5c4CCCC5)CC3)ccc21`, 1010 s; to `COc1ccc(N2CCN(C(=O)CN3C(=O)c4ccccc4Sc4ncccc43)CC2)cc1`, 725 s.
To `CC1=NS(=O)(=O)N(C)C=C1C(=O)OCc1nc(Cc2ccc(C)cc2)no1` belongs 956 s; to `COc1cccc2oc(-c3ccccc3)cc(=O)c12`, 900 s.
As for `COc1cccc(Oc2nccnc2N2CCC(C(=O)NCCC3=CCCCC3)CC2)c1`, the RP-LC retention time stood at 1050 s.
To `CCCNS(=O)(=O)c1ccc(-c2c(C)noc2C)cc1` belongs 835 s.
To `COC1C(=O)N(C2CCN(C(=O)c3cnccn3)CC2)C12CCOCC2` (stereo not drawn) belongs 555 s; to `Cc1cc(C)cc(NC(=O)NCCc2c(C)nn(C)c2C)c1`, 664 s; to `COc1ccccc1CC1C(=O)Nc2ccc(Cl)cc21` (stereo not drawn), 948 s.
To `COc1ccc(S(=O)(=O)NC2CCN(C(=O)C3CCC3)CC2)cc1` belongs 750 s; to `Cc1cc(=O)oc2c(C)c(OCC(O)CN3CCN(c4ccccn4)CC3)ccc12` (stereo not drawn), 572 s.
`CC(C)Cn1nc(CNC(=O)c2ccoc2)c2ccccc21`: the RP-LC retention time worked out at 846 s.
In the case of `COC(=O)c1c(C)[nH]c(C(=O)N2CCCC(C(=O)NCCN3CCCCCC3)C2)c1C` (stereo not drawn) it was 610 s.
In the case of `O=C(NCc1nnc2n1CCCC2)c1ccc2c(c1)OCO2` it was 1260 s.
In the case of `O=C(NCCCc1ccccc1)C1CCN(C(=O)c2ncn3c2COC(c2ccccc2)C3)CC1` (stereo not drawn) it was 821 s.
As to `Cc1ccc(Oc2nccn3c(=O)n(CC(=O)NC(C)CCc4ccccc4)nc23)cc1` (stereo not drawn), the RP-LC retention time is 1080 s.
`Cc1cccc(OCC(=O)N2CCC3(C2)C(=O)N(C)c2ccccc23)c1` (stereo not drawn) displayed an RP-LC retention time of 825 s.
Turning to `CCOc1ccc(N(C)C(=O)C2CCCN2S(=O)(=O)c2cc(C(=O)OC)n(C)c2)cc1` (stereo not drawn), the RP-LC retention time is 825 s.
In the case of `Cc1cc(C)c2c(N3CCSCC3)nc(C(=O)NCC(C)C)nc2n1` it was 658 s; in that of `COc1ccc(CNC(=O)C2CCN(c3nccn4nc(-c5cccs5)cc34)CC2)cc1`, 754 s; in that of `CN(C)S(=O)(=O)c1ccc2c(c1)N(CC(=O)Nc1ccc3c(c1)OCO3)C(=O)C1CCCCN21` (stereo not drawn), 877 s.
Compound `Cc1noc(C)c1S(=O)(=O)N1CCC(c2noc(-c3ccccc3)n2)C1` (stereo not drawn) registered an RP-LC retention time of 1010 s.
To `Cc1ccccc1NC(=O)C1C(=O)N(CCO)C2(C)CC1c1ccccc1O2` (stereo not drawn) belongs 653 s.
In the case of `Cn1cc(-c2ccncc2)cc1C(=O)NCc1ccc(F)cc1` it was 640 s; in that of `CN1CCN(CCCNC(=O)c2ccc(CS(=O)c3cccc(Cl)c3)o2)CC1` (stereo not drawn), 527 s; in that of `O=C(O)c1nnn(-c2ccccc2F)c1-c1cccnc1`, 612 s.
To `COc1ccc(-c2cn3cccnc3n2)cc1NC(=O)c1cccc(OC)c1OC` belongs 718 s; to `COc1ccc(NC(=O)N2CCN(c3cc(-c4ccc(OC)c(OC)c4)ncn3)CC2)cc1OC`, 620 s.
Take `COc1ccc(Cl)cc1NC(=O)NCCn1c(-c2ccncc2)nc2cccnc21`: the RP-LC retention time was 659 s.
Consider `CN(Cc1ccccc1)C(=O)CN1C(=O)C2CCCCN2c2ccc(S(=O)(=O)N3CCCC3)cc21` (stereo not drawn), for which the RP-LC retention time was found to be 987 s.
`CC(C)(Oc1ccc(Cl)cc1)C(=O)OCn1nnc2ccccc2c1=O` had an RP-LC retention time of 1010 s.
To `CCS(=O)(=O)c1nc2ccc(NS(=O)(=O)c3c(C)cc(C)cc3C)cc2s1` belongs 958 s; to `COc1cc2nc(N3CCCN(C)CC3)nc(NC3CCN(Cc4ccccc4)CC3)c2cc1OC`, 609 s.

These data come from the METLIN SMRT retention time set (Domingo-Almenara et al. 2019).
